Molecules are shown by their SMILES.

The target in the experiment is HDAC2 (Homo sapiens, UniProt Q92769). Kind of experiment: HDAC2 fluorescence inhibition assay (tBoc-Lys(Ac)-AMC).
HDAC2, sequence (Q92769 with tags, fused parts or gaps): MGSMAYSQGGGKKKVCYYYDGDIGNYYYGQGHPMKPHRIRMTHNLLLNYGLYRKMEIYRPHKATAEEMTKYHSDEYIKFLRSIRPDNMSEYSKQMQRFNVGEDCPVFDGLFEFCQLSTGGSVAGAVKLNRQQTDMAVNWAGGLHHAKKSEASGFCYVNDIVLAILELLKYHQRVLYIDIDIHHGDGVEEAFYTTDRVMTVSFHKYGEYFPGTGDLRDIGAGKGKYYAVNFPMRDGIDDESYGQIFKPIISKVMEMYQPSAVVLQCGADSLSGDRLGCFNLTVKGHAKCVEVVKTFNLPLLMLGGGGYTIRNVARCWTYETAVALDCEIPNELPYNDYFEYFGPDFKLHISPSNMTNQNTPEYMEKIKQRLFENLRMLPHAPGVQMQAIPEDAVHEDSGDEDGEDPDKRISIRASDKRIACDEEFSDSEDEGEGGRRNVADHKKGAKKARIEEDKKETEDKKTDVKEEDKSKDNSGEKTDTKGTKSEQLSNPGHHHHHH
With `CC(=O)Nc1ccc2nn(Cc3ccc(C(=O)Nc4ccccc4N)cc3)c(C)c2c1` [Example 106, 4-((5-acetamido-3-methyl-2H-indazol-2-yl)methyl)-N-(2-aminophenyl)benzamide], the IC50 is ≤ 50 nM.
Consider `CC(=O)Nc1ccc2c(c1)c(C)nn2Cc1ccc(C(=O)Nc2ccccc2N)cc1` [Example 107, 4-((5-acetamido-3-methyl-1H-indazol-1-yl)methyl)-N-(2-aminophenyl)benzamide], for which the IC50 fell in the range of 50 to 100 nM.
For the compound `CC(c1ccc(C(=O)Nc2ccccc2N)cc1)n1ncc2ccccc21` (stereo not drawn) [Example 108, 4-(1-(1H-indazol-1-yl)ethyl)-N-(2-aminophenyl)benzamide], the IC50 lay in the range of 50 to 100 nM.
`CC(c1ccc(C(=O)Nc2ccccc2N)cc1)n1cc2ccccc2n1` (stereo not drawn) [Example 109, 4-(1-(2H-indazol-2-yl)ethyl)-N-(2-aminophenyl)benzamide] came in with an IC50 of 50 to 100 nM.
For `CC(=O)Nc1ccc2c(cnn2Cc2ccc(C(=O)Nc3ccccc3N)s2)c1` [Example 110, 5-((5-acetamido-1H-indazol-1-yl)methyl)-N-(2-aminophenyl)thiophene-2-carboxamide] the value was 50 to 100 nM; for `Nc1ccc(-c2cccs2)cc1NC(=O)c1ccc(Cn2cc3ccccc3n2)cc1` [Example 111, 4-((2H-indazol-2-yl)methyl)-N-(2-amino-5-(thiophen-2-yl)phenyl)benzamide], ≤ 50 nM; for `Nc1ccc(-c2cccs2)cc1NC(=O)c1ccc(Cn2cc3c(F)cc(F)cc3n2)cc1` [Example 112, N-(2-amino-5-(thiophen-2-yl)phenyl)-4-((4,6-difluoro-2H-indazol-2-yl)methyl)benzamide], 100 to 500 nM.
Compound `Nc1ccc(-c2cccs2)cc1NC(=O)c1ccc(Cn2ncc3c(F)cc(F)cc32)cc1` [Example 113, N-(2-amino-5-(thiophen-2-yl)phenyl)-4-((4,6-difluoro-1H-indazol-1-yl)methyl)benzamide] registered an IC50 of 100 to 500 nM.
To `COc1ccc2c(C)nn(Cc3ccc(C(=O)Nc4cc(-c5cccs5)ccc4N)cc3)c2c1` [Example 114, N-(2-amino-5-(thiophen-2-yl)phenyl)-4-((6-methoxy-3-methyl-1H-indazol-1-yl)methyl)benzamide] belongs 50 to 100 nM; to `Cc1cnn(Cc2ccc(C(=O)Nc3cc(-c4cccs4)ccc3N)cc2)c1` [Example 115, N-(2-amino-5-(thiophen-2-yl)phenyl)-4-((4-methyl-1H-pyrazol-1-yl)methyl)benzamide], ≤ 50 nM; to `COc1ccc2c(C)n(Cc3ccc(C(=O)Nc4cc(-c5cccs5)ccc4N)cc3)nc2c1` [Example 116, N-(2-amino-5-(thiophen-2-yl)phenyl)-4-((6-methoxy-3-methyl-2H-indazol-2-yl)methyl)benzamide], 50 to 100 nM.
In turn, `Nc1ccccc1NC(=O)c1ccc(Cn2ncc3c(C(F)(F)F)cccc32)cc1` [Example 117, N-(2-aminophenyl)-4-((4-(trifluoromethyl)-1H-indazol-1-yl)methyl)benzamide] gave an IC50 of 50 to 100 nM.
`Nc1ccccc1NC(=O)c1ccc(Cn2cc3c(C(F)(F)F)cccc3n2)cc1` [Example 118, N-(2-aminophenyl)-4-((4-(trifluoromethyl)-2H-indazol-2-yl)methyl)benzamide] registered an IC50 of 50 to 100 nM.
To `Nc1ccccc1NC(=O)c1ccc(Cn2ncc3cc(C(F)(F)F)ccc32)cc1` [Example 119, N-(2-aminophenyl)-4-((5-(trifluoromethyl)-1H-indazol-1-yl)methyl)benzamide] belongs 50 to 100 nM.
To `Nc1ccccc1NC(=O)c1ccc(Cn2cc3cc(C(F)(F)F)ccc3n2)cc1` [Example 120, N-(2-aminophenyl)-4-((5-(trifluoromethyl)-2H-indazol-2-yl)methyl)benzamide] belongs 50 to 100 nM; to `Nc1ccccc1NC(=O)c1ccc(Cn2cc3ccc(C(F)(F)F)cc3n2)cc1` [Example 121, N-(2-aminophenyl)-4-((6-(trifluoromethyl)-2H-indazol-2-yl)methyl)benzamide], ≤ 50 nM; to `Nc1ccccc1NC(=O)c1ccc(Cn2cc(C(=O)O)cn2)cc1` [Example 122, 1-(4-(2-aminophenylcarbamoyl)benzyl)-1H-pyrazole-4-carboxylic acid], ≥ 500 nM.
To `Cc1ccn(Cc2ccc(C(=O)Nc3ccccc3N)cc2)n1` [Example 123, N-(2-aminophenyl)-4-((3-methyl-1H-pyrazol-1-yl)methyl)benzamide] belongs 100 to 500 nM; to `Cc1cc(C)n(Cc2ccc(C(=O)Nc3ccccc3N)cc2)n1` [Example 124, N-(2-aminophenyl)-4-((3,5-dimethyl-1H-pyrazol-1-yl)methyl)benzamide], 100 to 500 nM; to `CCOC(=O)c1cnn(Cc2ccc(C(=O)Nc3ccccc3N)cc2)c1` [Example 125, Ethyl 1-(4-(2-aminophenylcarbamoyl)benzyl)-1H-pyrazole-4-carboxylate], 50 to 100 nM.
Consider `Nc1ccccc1NC(=O)c1ccc(Cn2cc(C(=O)NCc3ccccn3)cn2)cc1` [Example 126, 1-(4-(2-aminophenylcarbamoyl)benzyl)-N-(pyridin-2-ylmethyl)-1H-pyrazole-4-carboxamide], for which the IC50 is ≤ 50 nM.
For the compound `Nc1ccccc1NC(=O)c1ccc(Cn2cc(C(=O)Nc3ccccc3)cn2)cc1` [Example 127, 1-(4-(2-aminophenylcarbamoyl)benzyl)-N-phenyl-1H-pyrazole-4-carboxamide], the IC50 was ≤ 50 nM.
For `Nc1ccccc1NC(=O)c1ccc(Cn2cc(C(=O)NCc3ccccc3)cn2)cc1` [Example 128, 1-(4-(2-aminophenylcarbamoyl)benzyl)-N-benzyl-1H-pyrazole-4-carboxamide] the value was ≤ 50 nM; for `Nc1ccccc1NC(=O)c1ccc(Cn2cc3c(n2)CCCC3)cc1` [Example 129, N-(2-aminophenyl)-4-((4,5,6,7-tetrahydro-2H-indazol-2-yl)methyl)benzamide], 50 to 100 nM.
`Nc1ccccc1NC(=O)c1ccc(Cn2ncc3c2CCCC3)cc1` [Example 130, N-(2-aminophenyl)-4-((4,5,6,7-tetrahydro-1H-indazol-1-yl)methyl)benzamide]: the IC50 is 100 to 500 nM.
To `Nc1ccccc1NC(=O)c1ccc(CNc2cc[nH]n2)cc1` [Example 131, 4-((1H-pyrazol-3-ylamino)methyl)-N-(2-aminophenyl)benzamide] belongs ≥ 500 nM; to `Nc1ccccc1NC(=O)c1ccc(Cn2nccc2N)cc1` [Example 132, 4-((5-amino-1H-pyrazol-1-yl)methyl)-N-(2-aminophenyl)benzamide], ≥ 500 nM.
`Nc1ccn(Cc2ccc(C(=O)Nc3ccccc3N)cc2)n1` [Example 133, 4-((3-amino-1H-pyrazol-1-yl)methyl)-N-(2-aminophenyl)benzamide] showed an IC50 of 100 to 500 nM.
For `CNC(=O)c1cnn(Cc2ccc(C(=O)Nc3ccccc3N)cc2)c1` [Example 134, 1-(4-(2-aminophenylcarbamoyl)benzyl)-N-methyl-1H-pyrazole-4-carboxamide] the value was 50 to 100 nM.
To `CCNC(=O)c1cnn(Cc2ccc(C(=O)Nc3ccccc3N)cc2)c1` [Example 135, 1-(4-(2-aminophenylcarbamoyl)benzyl)-N-ethyl-1H-pyrazole-4-carboxamide] belongs 50 to 100 nM; to `CN(C)C(=O)c1cnn(Cc2ccc(C(=O)Nc3ccccc3N)cc2)c1` [Example 136, 1-(4-(2-aminophenylcarbamoyl)benzyl)-N,N-dimethyl-1H-pyrazole-4-carboxamide], 100 to 500 nM; to `CC(C)NC(=O)c1cnn(Cc2ccc(C(=O)Nc3ccccc3N)cc2)c1` [Example 137, 1-(4-(2-aminophenylcarbamoyl)benzyl)-N-isopropyl-1H-pyrazole-4-carboxamide], ≤ 50 nM.
To `Nc1ccccc1NC(=O)c1ccc(Cn2cc(C(=O)NC3CC3)cn2)cc1` [Example 138, 1-(4-(2-aminophenylcarbamoyl)benzyl)-N-cyclopropyl-1H-pyrazole-4-carboxamide] belongs 50 to 100 nM.
Regarding `Nc1ccccc1NC(=O)c1ccc(Cn2cc(C(=O)NCC3CC3)cn2)cc1` [Example 139, 1-(4-(2-aminophenylcarbamoyl)benzyl)-N-(cyclopropylmethyl)-1H-pyrazole-4-carboxamide], the IC50 fell in the range of 50 to 100 nM.
For `CN(C)CCNC(=O)c1cnn(Cc2ccc(C(=O)Nc3ccccc3N)cc2)c1` [Example 140, 1-(4-(2-aminophenylcarbamoyl)benzyl)-N-(2-(dimethylamino)ethyl)-1H-pyrazole-4-carboxamide] the value was 50 to 100 nM.
To `NC(=O)c1cnn(Cc2ccc(C(=O)Nc3ccccc3N)cc2)c1` [Example 142, 1-(4-(2-aminophenylcarbamoyl)benzyl)-1H-pyrazole-4-carboxamide] belongs 50 to 100 nM.
To `Nc1ccccc1NC(=O)c1ccc(Cn2cc(C(=O)NCCO)cn2)cc1` [Example 143, 1-(4-(2-aminophenylcarbamoyl)benzyl)-N-(2-hydroxyethyl)-1H-pyrazole-4-carboxamide] belongs 50 to 100 nM; to `CN(C)CCCNC(=O)c1cnn(Cc2ccc(C(=O)Nc3ccccc3N)cc2)c1` [Example 144, 1-(4-(2-aminophenylcarbamoyl)benzyl)-N-(3-(dimethylamino)propyl)-1H-pyrazole-4-carboxamide], ≤ 50 nM.
In the case of `Nc1ccccc1NC(=O)c1ccc(Cn2cc(C(=O)NCc3cccnc3)cn2)cc1` [Example 145, 1-(4-(2-aminophenylcarbamoyl)benzyl)-N-(pyridin-3-ylmethyl)-1H-pyrazole-4-carboxamide], the IC50 is ≤ 50 nM.
`Nc1ccccc1NC(=O)c1ccc(Cn2cc(C(=O)NCc3ccncc3)cn2)cc1` [Example 146, 1-(4-(2-aminophenylcarbamoyl)benzyl)-N-(pyridin-4-ylmethyl)-1H-pyrazole-4-carboxamide]: the IC50 was ≤ 50 nM.
For `Nc1ccccc1NC(=O)c1ccc(Cn2cc(C(=O)NCCN3CCOCC3)cn2)cc1` [Example 147, 1-(4-(2-aminophenylcarbamoyl)benzyl)-N-(2-morpholinoethyl)-1H-pyrazole-4-carboxamide], the IC50 lay within 50 to 100 nM.
As for `Cc1ccnn1Cc1ccc(C(=O)Nc2ccccc2N)cc1` [Example 148, N-(2-aminophenyl)-4-((5-methyl-1H-pyrazol-1-yl)methyl)benzamide], the IC50 lay in the range of 100 to 500 nM.

The values above are taken from patent publication US7732475B2, “Histone deacetylase inhibitors” (Takeda San Diego, Inc., priority 2005, dated 2010).
